Tested on: not listed separately
Assay: Standing of the free dihydroxy acid (reversion to lactone)
Type: physicochemical
Details: free dihydroxy acid after isolation; can be maintained by increasing the pH above 7.0
Description: The sodium salt of the compound II from Example 64 is dissolved in 2 ml of ethanol-water (1:1; v:v) and added to 10 ml of 1N hydrochloric acid from which the dihydroxy acid is extracted with ethyl acetate. The organic extract is washed once with water, dried (Na2 SO4), and evaporated in vacuo with a bath temperature not exceeding 30° C. […] The dihydroxy acid can be maintained by increasing the pH above 7.0.

Compound | stability of the dihydroxy acid on standing
CCC(C)(C)C(=O)O[C@H]1C[C@@H](CO)C[C@@H]2CC[C@H](C)[C@H](CC[C@@H](O)C[C@@H](O)CC(=O)O)[C@H]21 [Example 70] | slowly reverts to the corresponding,parent lactone on standing

Tested on: HMG-CoA reductase
Assay: HMG-CoA Reductase Inhibition Assay (in vitro, relative to compactin)
Type: biochemical
Details: IC50 compared with compactin determined simultaneously, compactin assigned 100; tested as sodium salt of dihydroxy acid form; solubilized rat liver microsomal enzyme
Description: The intrinsic HMG-CoA reductase inhibition activity of the claimed compounds is measured in the in vitro protocol published in J. Med. Chem., 28, p. […] (1985) and described below: Male Holtzman Sprague-Dawley rats (225-250 g) were kept on reversed lighting and fed Purina rat chow containing 3% cholestyramine for 7 days preceding their sacrifice by CO2 asphyxiation. Livers were removed 6 hours into the dark cycle and used immediately to prepare microsomes. HMG-CoA reductase was solubilized from the freshly prepared microsomes by the method of Heller and Shrewsbury [J. Biol. Chem., 1976, 251, 3815]and purified through the second ammonium sulfate precipitation step as described by Kleinsek et al. [Proc. Natl. Acad. Sci. USA, 1977, 74, 1431]. […] The enzyme preparation was stored at -80° C. The assay is essentially the procedure of Shefer et al. [J. Lipid Res., 1972, 13, 402]. The complete assay medium contained the following in a total volume of 0.8 ml: phosphate buffer, pH 7.2, 100 mM; MgCl2, 3 mM; NADP, 3 mM; glucose-6-phosphate, 10 mM; glucose-6-phosphate dehydro-genase, 3 enzyme units; reduced glutathione 50 mM; HMG-CoA (glutaryl-3-^14 C, New England Nuclear), 0.2 mM (0.1 μCi); and partially purified enzyme stock solution, 100 μL. […] After a 40-minute incubation at 37° C. with shaking and exposure to air, the reaction was stopped by the addition of 0.4 mL of 8 N HCl. After an additional 30-minute incubation period at 37° C. to ensure the complete lactonization of mevalonic acid to mevalonolactone, 0.2 ml of the mixture was added to an 0.5×5.0 cm column containing 100-200 mesh Bio-Rex 5, chloride form (Bio-Rad), wetted with distilled water, as described by Alberts et al. [Proc. Natl. Acad. Sci. U.S.A., 1980, 77, 3967]. The unreacted [^14 C]HMG-CoA was absorbed on the resin and the [^14 C]mevalonolactone was eluted with distilled water (2×1 ml) directly into 7-ml scintillation vials. Five milliliters of Aquasol-2 (New England Nuclear) was added to each vial, and radioactivity was measured in a Packard Tri Carb Prias scintillation counter. IC50 values were determined by plotting percentage inhibition against test compound concentration and fitting a straight line to the resulting data by using the least-squares method.

Compound | Relative Potency
CCC(C)(C)C(=O)O[C@H]1C[C@@H](CO)C=C2CC[C@H](C)[C@H](CC[C@@H](O)C[C@@H](O)CC(=O)O)[C@H]21 [db -- -- R CH2 OH 1,1-dimethylpropyl] | 213
CCC(C)(C)C(=O)O[C@H]1C[C@H](C(C)O)C[C@@H]2CC[C@H](C)[C@H](CC[C@@H](O)C[C@@H](O)CC(=O)O)[C@H]21 (single isomer, unassigned) [-- -- -- R CHOHCH3 (ISOMER B) 1,1-dimethylpropyl] | 104
CCC(C)(C)C(=O)O[C@H]1C[C@@H](C(=O)O)C[C@@H]2CC[C@H](C)[C@H](CC[C@@H](O)C[C@@H](O)CC(=O)O)[C@H]21 [-- -- -- S CO2 H 1,1-dimethylpropyl] | 79
CCC(C)(C)C(=O)O[C@H]1C[C@@H](C(=O)N(C)C)C[C@@H]2CC[C@H](C)[C@H](CC[C@@H](O)C[C@@H](O)CC(=O)O)[C@H]21 [-- -- -- S CONMe2 1,1-dimethylpropyl] | 75
CCC(C)(C)C(=O)O[C@H]1C[C@H](COC(=O)Nc2ccccc2)C=C2C=C[C@H](C)[C@H](CC[C@@H](O)C[C@@H](O)CC(=O)O)[C@H]21 | 726
CCC(C)(C)C(=O)OC[C@H]1C[C@@H]2CC[C@H](C)[C@H](CC[C@@H](O)C[C@@H](O)CC(=O)O)[C@H]2[C@@H](OC(=O)C(C)(C)CC)C1 | 100
CCC(C)(C)C(=O)O[C@H]1C[C@@H](C(C)O)C[C@@H]2CC[C@H](C)[C@H](CC[C@@H](O)C[C@@H](O)CC(=O)O)[C@H]21 (single isomer, unassigned) [-- -- -- S CHOHCH3 (ISOMER B) 1,1-dimethylpropyl] | 113
C[C@H]1CC[C@H]2C[C@H](CO)C[C@H](OC(=O)C3CCCCC3)[C@@H]2[C@H]1CC[C@@H](O)C[C@@H](O)CC(=O)O [-- -- -- S CH2 OH cyclohexyl] | 33
CCC(C)(C)C(=O)O[C@H]1C[C@H](C(C)O)C[C@@H]2CC[C@H](C)[C@H](CC[C@@H](O)C[C@@H](O)CC(=O)O)[C@H]21 (single isomer, unassigned) [-- -- -- R CHOHCH3 (ISOMER A) 1,1-dimethylpropyl] | 111
CCC(C)(C)C(=O)OC[C@H]1C=C2CC[C@H](C)[C@H](CC[C@@H](O)C[C@@H](O)CC(=O)O)[C@H]2[C@@H](OC(=O)C(C)(C)CC)C1 | 33
CCC(C)(C)C(=O)O[C@H]1C[C@H](CO)C=C2C=C[C@H](C)[C@H](CC[C@@H](O)C[C@@H](O)CC(=O)O)[C@H]21 [db -- db S CH2 OH 1,1-dimethylpropyl] | 189
CCC(C)(C)C(=O)O[C@H]1C[C@@H](C(O)c2ccccc2)C[C@@H]2CC[C@H](C)[C@H](CC[C@@H](O)C[C@@H](O)CC(=O)O)[C@H]21 (single isomer, unassigned) [-- -- -- S CHOHPH 1,1-dimethylpropyl] | 220
CCC(C)(C)C(=O)O[C@H]1C[C@@H](C(=O)OC(C)C)C[C@@H]2CC[C@H](C)[C@H](CC[C@@H](O)C[C@@H](O)CC(=O)O)[C@H]21 [-- -- -- S CO2 i-Pr 1,1-dimethylpropyl] | 80
CCC(C)C(=O)O[C@H]1C[C@H](C(=O)O)C=C2C=C[C@H](C)[C@H](CC[C@@H](O)C[C@@H](O)CC(=O)O)[C@H]21 (stereo partly shown) [db -- db S CO2 H sec-butyl] | 26
CCC(C)(C)C(=O)O[C@H]1C[C@@H](C(=O)N(C(=O)NC2CCCCC2)C2CCCCC2)C[C@@H]2CC[C@H](C)[C@H](CC[C@@H](O)C[C@@H](O)CC(=O)O)[C@H]21 | 100
CCC(C)(C)C(=O)O[C@H]1C[C@@H](C(N)=O)C[C@@H]2CC[C@H](C)[C@H](CC[C@@H](O)C[C@@H](O)CC(=O)O)[C@H]21 [-- -- -- S CONH2 1,1-dimethylpropyl] | 107
CCC(C)(C)C(=O)O[C@H]1C[C@H](C(=O)O)C=C2C=C[C@H](C)[C@H](CC[C@@H](O)C[C@@H](O)CC(=O)O)[C@H]21 [db -- db S CO2 H 1,1-dimethylpropyl] | 99
CCC(C)(C)C(=O)O[C@H]1C[C@@H](CO)C[C@@H]2CC[C@H](C)[C@H](CC[C@@H](O)C[C@@H](O)CC(=O)O)[C@H]21 [-- -- -- S CH2 OH 1,1-dimethylpropyl] | 86
CCC(C)(C)C(=O)O[C@H]1C[C@H](C(=O)N(C)C)C=C2C=C[C@H](C)[C@H](CC[C@@H](O)C[C@@H](O)CC(=O)O)[C@H]21 [db -- db S CONMe2 1,1-dimethylpropyl] | 82
CCOC(=O)[C@H]1C[C@@H]2CC[C@H](C)[C@H](CC[C@@H](O)C[C@@H](O)CC(=O)O)[C@H]2[C@@H](OC(=O)C(C)(C)CC)C1 [-- -- -- S CO2 Et 1,1-dimethylpropyl] | 125
CCC(C)(C)C(=O)O[C@H]1C[C@@H](C(C)O)C[C@@H]2CC[C@H](C)[C@H](CC[C@@H](O)C[C@@H](O)CC(=O)O)[C@H]21 (single isomer, unassigned) [-- -- -- S CHOHCH3 (ISOMER A) 1,1-dimethylpropyl] | 131
CCN(CC)C(=O)[C@@H]1C=C2C=C[C@H](C)[C@H](CC[C@@H](O)C[C@@H](O)CC(=O)O)[C@H]2[C@@H](OC(=O)C(C)(C)CC)C1 [db -- db S CONEt2 1,1-dimethylpropyl] | 65
CCC(C)(C)C(=O)O[C@H]1C[C@@H](C(=O)O)C=C2C=C[C@H](C)[C@H](CC[C@@H](O)C[C@@H](O)CC(=O)O)[C@H]21 [db -- db R CO2 H 1,1-dimethylpropyl] | 94
CCC(C)C(=O)O[C@H]1C[C@@H](CO)C=C2C=C[C@H](C)[C@H](CC[C@@H](O)C[C@@H](O)CC(=O)O)[C@H]21 (stereo partly shown) [db -- db R CH2 OH sec-butyl] | 47
